According to patent US4370416A (Kikkoman Corporation, priority 1980, dated 1983):

How the values were obtained:
HCEH = assay: Activity of HCEH on hydroxy-cinnamic acid ester substances and tannic acid (liquid chromatography); format: biochemical; conditions: for Relative activity: HCEH on the substance as substrate, 0.1 M phosphate buffer pH 6.5, molar ratio of produced hydrolyzate; for Action and substrate specificity of the enzyme (hydrolysis of the ester linkage): qualitative
Description: Here, the activity of HCEH on various hydroxy-cinnamic acid ester substances and tannic acid was determined by measuring the quantity of their hydrolysis by means of liquid chromatography using 0.1 M phosphate buffer solution (pH 6.5). The results are shown in Table 3, where the activity is expressed as molar ratio of produced hydrolyzate.

novel HCEH = assay: Inhibition of the novel HCEH; format: biochemical

Row | Molecule | Relative activity (HCEH) [%] | Action and substrate specificity of the enzyme (hydrolysis of the ester linkage) (HCEH) | Inhibition of HCEH (novel HCEH)
1 | O=C(C=Cc1ccc(O)c(O)c1)OC(C(=O)O)C(O)C(=O)O (stereo not shown) | 69.8 | hydrolyze the ester linkage | 
2 | O=C(C=Cc1ccc(O)c(O)c1)OC1CC(O)(C(=O)O)CC(O)C1O (stereo not shown) [3-caffeoyl quinic acid] | 100 | hydrolyze the ester linkage | 
3 | Oc1cccc2cccnc12 [8-hydroxyquinoline] |  |  | inhibited
4 | [Fe+2] [Fe^++] |  |  | inhibited
5 | [Hg+2] [Hg^++] |  |  | inhibited
6 | COc1cc(C=CC(=O)OC(C(=O)O)C(O)C(=O)O)ccc1O (stereo not shown) [feruloyl tartaric acid] |  | hydrolyze the ester linkage | 
7 | II [iodine] |  |  | inhibited
8 | O=C(O)c1cc[c]([Hg][Cl])cc1 [p-CMB, p-chloromercury-benzoic acid] |  |  | inhibited
9 | O=C(C=Cc1ccc(O)cc1)OC(C(=O)O)C(O)C(=O)O (stereo not shown) [p-coumaroyl tartaric acid] | 78.3 | hydrolyze the ester linkage | 
10 | Tannic acid | 0 |  | 
